US20240082212A1, “USE OF MDMA FOR TREATMENT OF STRESS-RELATED DISORDERS” (priority 2022, published 2024)
“Also recorded” adds a separate entry of the source. Read-outs that look alike come from different tables or passages of the source.

What was measured:
[1] = system: CD (Sprague Dawley) rats; test: Rat telemetry: heart rate, blood pressure, body temperature, activity after cumulative SC dosing; type: in vivo
From the text: Methods. A total of 42 adult male CD® (Sprague Dawley) rats (Charles River Laboratories) were surgically implanted with DSI radiotelemetry devices by personnel at Charles River Laboratories Raleigh, NC, per their test site SOPs. Telemetry devices supported continuous recording of temperature, activity, blood pressure and heart rate. Telemeterized rats were shipped to the Charles River Laboratories testing facility (Mattawan, MI) and acclimated to the environment for at least 1 week prior to experimentation. Animals were pair-housed in solid bottom cages with nonaromatic bedding. On the dosing day, animals were singly housed and then returned to the paired cohort following the dosing/telemetry recording phase. Diet (Lab Diet® Certified Rodent Diet #5CR4) and tap water via an automatic water system were available ad libitum, except during designated procedures. Temperature and humidity were maintained according to the Testing Facility SOP. Animals were randomized into treatment groups using a standard, by weight, measured value randomization procedure. Body weight was determined for each rat prior to dosing.
As illustrated in the Table, a total of 36 rats were included in the study. The vehicle and 2 test article doses were administered in a volume of 1 mL/kg to each of 3 groups of n=12 telemeterized rats via subcutaneous injection four times on a given day, followed by neurobehavioral evaluations. This series was repeated 3 times on study. Each group received all 3 dose levels of the applicable test or control article in ascending order with a 1-week washout between dose levels.
Mortality/cage side clinical observations were conducted for all study animals at least twice daily beginning upon receipt through termination, except on days of receipt and termination where frequency was at least once daily. Detailed clinical observations were conducted for all study animals prior to each of the four cumulative doses in a series. Individual body weights were conducted for all study animals at transfer, prior to randomization, on the day of dosing on each of the 3 cycles of dosing. The body weights recorded at transfer and prior to randomization are not reported but are maintained in the study file. Veterinary care was available throughout the course of the study, and animals were examined by the veterinary staff as needed based on clinical signs or other changes. All animals were provided with HydroGel the night prior to their respective dosing days to potentially mitigate any animal welfare issues related to fluid loss/dehydration.
Telemetry monitoring was conducted for all animals 2 hours prior to dosing and through to 7.5 hours following the last (4th) cumulative dose of each series, which included continuous data collection of body temperature, activity, heart rate, and blood pressure (systolic, diastolic, and mean arterial) using telemetry.
The total period of time over which the statistical analyses were conducted encompassed the entire dosing period for all animals (i.e., Dose 1 through 7.5 hour post-4th dose) in an effort to draw conclusions regarding the effects of the dosing procedure and cumulative changes by allowing comparisons between the cumulative dosing periods. The following statistical analyses were performed for each analysis segment.
All time-series data comparisons conducted via statistical analysis are relative to the control treatment and are based on the LSMean values. Additionally, the change values used for the statistical analysis were calculated using a baseline of the 2 hours of pre-dose data, prior to the first compound injection of the series. The raw change values were analyzed.

[2] = Rat plasma pharmacokinetics after cumulative (QID) SC injections; conditions: for Cmax: parent analyte (total MDMA after Rac-MDMA)
[3] = telemetry, cumulative SC dosing, dose groups stated in the value
[4] = male rat plasma, parent analyte, QID SC, total 10 mg/kg/day
[5] = male rat plasma, parent analyte, QID SC, total 20 mg/kg/day

In the case of `CNC(C)Cc1ccc2c(c1)OCO2` (single isomer, unassigned) [R-MDMA, R(−)-3,4-methylenedioxymethamphetamine], the “stepwise increases in blood pressure or heart rate with repeated doses” value ([1]; 4 hourly SC injections during telemetry monitoring) is reported as “no stepwise increases in blood pressure or heart rate were observed”, the “hemodynamic parameters (systolic/diastolic/mean arterial blood pressures and heart rate)” value ([1]; 4 hourly SC injections, cumulative doses 5, 10, or 20 mg/kg/day) is reported as “dose-dependent blood pressure-increasing effects” and the body temperature response ([1]; R-MDMA 10 mg/kg/day, 4 hourly SC injections) is reported as “hypothermic response”. For the same molecule, the body temperature response ([1]; R-MDMA 20 mg/kg/day, 4 hourly SC injections) was “hyperthermic response”, the “activity (implanted telemetry devices)” value ([1]; all cumulative doses (5, 10, or 20 mg/kg/day)) was “Activity-increasing effects” and the “recovery of blood pressure effects” value ([1]; by the end of telemetry monitoring (7.5 h after 4th dose)) was “only test article examined which produced recoverable effects by the end of telemetry monitoring”. The heart rate increase ([1]; maximum change, R-MDMA and racemic MDMA 10, 20 mg/kg/day, S-MDMA 5, 10 mg/kg/day, 4 hourly SC injections) was “up to +23%”, the peak body temperatures ([1]; overall mean magnitude of change, 4 hourly SC injections) was 38.6 °C and the “Rank Order Blood Pressures (Systolic, Diastolic, and Mean Arterial) Effects” value [1, 3] was “R-MDMA (10 mg/kg/day) < S-MDMA (5 mg/kg/day) < Rac.-MDMA (10 mg/kg/day); also recorded: R-MDMA (20 mg/kg/day) < S-MDMA (10 mg/kg/day) < Rac-MDMA (20 mg/kg/day); also recorded: R-MDMA (0 mg/kg/day) < R-MDMA (10 mg/kg/day) < R-MDMA (20 mg/kg/day); also recorded: R-MDMA (10 mg/kg/day) < S-MDMA (10 mg/kg/day) < Rac-MDMA (20 mg/kg/day)”. The “Rank Order Body Temperature Effects” value [1, 3] was “R-MDMA (10 mg/kg/day) < S-MDMA (5 mg/kg/day) < Rac.-MDMA (10 mg/kg/day); also recorded: R-MDMA (20 mg/kg/day) < S-MDMA (10 mg/kg/day) < Rac-MDMA (20 mg/kg/day); also recorded: R-MDMA (0 mg/kg/day) < R-MDMA (10 mg/kg/day) < R-MDMA (20 mg/kg/day); also recorded: R-MDMA (10 mg/kg/day) < S-MDMA (10 mg/kg/day) < Rac-MDMA (20 mg/kg/day)”, the “Rank Order General Activity Effects” value [1, 3] was “R-MDMA (10 mg/kg/day) < S-MDMA (5 mg/kg/day) < Rac.-MDMA (10 mg/kg/day); also recorded: R-MDMA (20 mg/kg/day) < S-MDMA (10 mg/kg/day) < Rac-MDMA (20 mg/kg/day); also recorded: R-MDMA (0 mg/kg/day) < R-MDMA (10 mg/kg/day) < R-MDMA (20 mg/kg/day); also recorded: R-MDMA (10 mg/kg/day) < S-MDMA (10 mg/kg/day) < Rac-MDMA (20 mg/kg/day)” and the “Rank Order Heart Rate Measurement Effects” value [1, 3] was “R-MDMA (10 mg/kg/day) < S-MDMA (5 mg/kg/day) < Rac.-MDMA (10 mg/kg/day); also recorded: R-MDMA (20 mg/kg/day) < S-MDMA (10 mg/kg/day) < Rac-MDMA (20 mg/kg/day); also recorded: R-MDMA (0 mg/kg/day) < R-MDMA (10 mg/kg/day) < R-MDMA (20 mg/kg/day); also recorded: R-MDMA (10 mg/kg/day) < S-MDMA (10 mg/kg/day) < Rac-MDMA (20 mg/kg/day)”. For the same molecule, the AUC(0-t) [2] was 11800 ng·h/mL, the “dose dependence of Cmax and AUC0-27 hr” value ([2]; dose increase from 10 to 20 mg/kg/day of the dosed test article, QID SC) was “approximately dose proportional manner” and the “AUC0-27 hr/Dose” value [2, 4] was 420 *kg*ng/mL/mg. The Cmax/Dose [2, 4] was 114 kg·ng/mL/mg, the Tlast [2, 4] was 11 h and the “AUC0-27 hr/Dose” value [2, 5] was 590 *kg*ng/mL/mg. For the same molecule, the Cmax/Dose [2, 5] was 127 kg·ng/mL/mg, the Tlast [2, 5] was 11 h and the AUC(0-t) ([2]; male, Sprague-Dawley (CD), rat, plasma, sc, 10 mg/kg/day, AUC0-27 hr, male rat plasma, parent analyte, QID SC, total 10 mg/kg/day) was 4200 ng·h/mL. For the same molecule, the AUC(0-t) ([2]; male, Sprague-Dawley (CD), rat, plasma, sc, 10 mg/kg/day, AUCTlast, male rat plasma, parent analyte, QID SC, total 10 mg/kg/day) was 4160 ng·h/mL, the Cmax ([2]; male, Sprague-Dawley (CD), rat, plasma, sc, 10 mg/kg/day, male rat plasma, QID SC, total 10 mg/kg/day of the test article) was 1140 ng/mL and the half-life ([2]; male, Sprague-Dawley (CD), rat, plasma, sc, 10 mg/kg/day, T1/2, male rat plasma, parent analyte, QID SC, total 10 mg/kg/day) was 1.01 h. For the same molecule, the AUC(0-t) ([2]; male, Sprague-Dawley (CD), rat, plasma, sc, 20 mg/kg/day, AUCTlast, male rat plasma, parent analyte, QID SC, total 20 mg/kg/day) was 11300 ng·h/mL and the Cmax ([2]; male, Sprague-Dawley (CD), rat, plasma, sc, 20 mg/kg/day, male rat plasma, QID SC, total 20 mg/kg/day of the test article) was 2550 ng/mL.
